Reference: PubChem BioAssay AID1259407 (Chemical Carcinogenesis Research Information System (CCRIS), 2018)
The source made the active and inactive calls. How the calls were made is not given here.

Test system: CCRIS mutagenicity, Ames/micronucleus/aberration tests
Experiment: CCRIS mutagenicity studies
[1] = Test System: AMES SALMONELLA TYPHIMURIUM, Strain/Indicator: TA97, Metabolic Activation: NONE, Method: STANDARD PLATE
[2] = Test System: AMES SALMONELLA TYPHIMURIUM, Strain/Indicator: TA98, Metabolic Activation: NONE, Method: STANDARD PLATE
[3] = Test System: AMES SALMONELLA TYPHIMURIUM, Strain/Indicator: TA98, Metabolic Activation: RAT, LIVER, S-9, AROCLOR 1254, Method: STANDARD PLATE
[4] = Test System: AMES SALMONELLA TYPHIMURIUM, Strain/Indicator: TA100, Metabolic Activation: NONE, Method: STANDARD PLATE
[5] = Test System: AMES SALMONELLA TYPHIMURIUM, Strain/Indicator: TA100, Metabolic Activation: RAT, LIVER, S-9, AROCLOR 1254, Method: STANDARD PLATE

[Cl][Cd][Cl]
mutagenic call (End Point: IN VITRO MICRONUCLEUS, Test System: CHL/IU CELLS, Metabolic Activation: NONE): active; positive
mutagenic call (End Point: IN VITRO MICRONUCLEUS, Test System: HAMSTER V79 CELLS, Metabolic Activation: NONE): active; positive
mutagenic call (End Point: IN VITRO MICRONUCLEUS, Test System: HUMAN PERIPHERAL LYMPHOCYTES, Metabolic Activation: NONE, Method: FISH (CENTROMERIC SIGNAL CONTENT)): active; positive
mutagenic call [1]: inactive; negative
mutagenic call (Test System: AMES SALMONELLA TYPHIMURIUM, Strain/Indicator: TA97, Metabolic Activation: RAT, LIVER, S-9, AROCLOR 1254, Method: STANDARD PLATE): inactive; negative
mutagenic call [2]: inactive; negative
mutagenic call [3]: inactive; negative
mutagenic call (Test System: AMES SALMONELLA TYPHIMURIUM, Strain/Indicator: TA98, Metabolic Activation: S-9, Method: STANDARD PLATE): inactive; negative
mutagenic call [4]: inactive; negative
mutagenic call [5]: inactive; negative
mutagenic call (Test System: AMES SALMONELLA TYPHIMURIUM, Strain/Indicator: TA1535, Metabolic Activation: NONE, Method: STANDARD PLATE): inactive; negative
mutagenic call (Test System: AMES SALMONELLA TYPHIMURIUM, Strain/Indicator: TA1535, Metabolic Activation: S-9, Method: STANDARD PLATE): inactive; negative
mutagenic call (Test System: CHINESE HAMSTER V-79, Strain/Indicator: SP5 V-79 (HPRT)/6-THIOGUANINE, Metabolic Activation: NONE, Method: STANDARD PLATE): inactive; negative
mutagenic call (Test System: CHINESE HAMSTER V-79, Strain/Indicator: SPD8 V-79 (HPRT)/6-THIOGUANINE, Metabolic Activation: NONE, Method: STANDARD PLATE): active; positive
mutagenic call (Test System: CHINESE HAMSTER V-79 CELLS, Strain/Indicator: V-79 CELLS (HPRT)/6-THIOGUANINE, Metabolic Activation: NONE, Method: PREINCUBATION): inactive; negative
mutagenic call (Test System: Chinese hamster lung cells, Strain/Indicator: V-79/HPRT/6-Thioguanidine, Metabolic Activation: None, Method: Standard Plate): active; positive
mutagenic call (Test System: E. COLI, Strain/Indicator: WP2 UVRA, Metabolic Activation: NONE, Method: SPOT TEST): active; positive
mutagenic call (Test System: E. COLI, Strain/Indicator: WP2 UVRA, Metabolic Activation: NONE, Method: STANDARD PLATE): active; positive
mutagenic call (Test System: Rat lymphocytes, Strain/Indicator: Kumin/Male/HPRT/6-Thioguanidine, Metabolic Activation: None, Method: Intraperitoneal injection, blood collection 1, 6, and 12 d later): active; positive
mutagenic call (Test System: UDS HAMSTER TRACHEAL EPITHELIAL CELLS, Strain/Indicator: THY INCORP (NON-S-PHASE), Metabolic Activation: NONE, Method: AUTORADIOGRAPHY): inactive; negative
mutagenic call (Test System: UDS RAT TRACHEAL EPITHELIAL CELLS, Strain/Indicator: THY INCORP (NON-S-PHASE), Metabolic Activation: NONE, Method: AUTORADIOGRAPHY): active; positive

C[C@]12C=CC3=C4CCC(=O)C=C4CC[C@H]3[C@@H]1CC[C@@H]2O
mutagenic call [2]: inactive; negative
mutagenic call (Test System: AMES SALMONELLA TYPHIMURIUM, Strain/Indicator: TA98, Metabolic Activation: RAT, LIVER, S-9, AROCLOR 1254 (5%, 30%), Method: PREINCUBATION): inactive; negative
mutagenic call [3]: inactive; negative
mutagenic call (Test System: AMES SALMONELLA TYPHIMURIUM, Strain/Indicator: TA98, Metabolic Activation: RAT, LIVER, S-9, Method: STANDARD PLATE): inactive; negative; toxicity at 3000 ug/plate
mutagenic call [4]: inactive; negative
mutagenic call (Test System: AMES SALMONELLA TYPHIMURIUM, Strain/Indicator: TA100, Metabolic Activation: RAT, LIVER, S-9, AROCLOR 1254 (5%, 30%), Method: PREINCUBATION): inactive; negative
mutagenic call [5]: inactive; negative
mutagenic call (Test System: AMES SALMONELLA TYPHIMURIUM, Strain/Indicator: TA100, Metabolic Activation: RAT, LIVER, S-9, Method: STANDARD PLATE): inactive; negative
mutagenic call (Test System: AMES SALMONELLA TYPHIMURIUM, Strain/Indicator: TA102, Metabolic Activation: RAT, LIVER, S-9, AROCLOR 1254 (5%, 30%), Method: PREINCUBATION): inactive; negative
mutagenic call (Test System: AMES SALMONELLA TYPHIMURIUM, Strain/Indicator: TA1535, Metabolic Activation: RAT, LIVER, S-9, AROCLOR 1254, Method: STANDARD PLATE): inactive; negative
mutagenic call (Test System: AMES SALMONELLA TYPHIMURIUM, Strain/Indicator: TA1535, Metabolic Activation: RAT, LIVER, S-9, Method: STANDARD PLATE): inactive; negative
mutagenic call (Test System: AMES SALMONELLA TYPHIMURIUM, Strain/Indicator: TA1537, Metabolic Activation: RAT, LIVER, S-9, AROCLOR 1254, Method: STANDARD PLATE): inactive; negative
mutagenic call (Test System: AMES SALMONELLA TYPHIMURIUM, Strain/Indicator: TA1537, Metabolic Activation: RAT, LIVER, S-9, Method: STANDARD PLATE): inactive; negative
mutagenic call (Test System: AMES SALMONELLA TYPHIMURIUM, Strain/Indicator: TA1538, Metabolic Activation: RAT, LIVER, S-9, AROCLOR 1254, Method: STANDARD PLATE): inactive; negative
mutagenic call (Test System: AMES SALMONELLA TYPHIMURIUM, Strain/Indicator: TA1538, Metabolic Activation: RAT, LIVER, S-9, Method: STANDARD PLATE): inactive; negative
mutagenic call (Test System: CHINESE HAMSTER V-79, Strain/Indicator: V-79/6-THIOGUANINE, Metabolic Activation: NONE, Method: STANDARD PLATE): inactive; negative
mutagenic call (Test System: CHINESE HAMSTER V-79, Strain/Indicator: V-79/6-THIOGUANINE, Metabolic Activation: RAT, LIVER, S-9, AROCLOR 1254, Method: STANDARD PLATE): inactive; negative
mutagenic call (Test System: CHO/HGPRT, Strain/Indicator: CHO-K1-BH4, Metabolic Activation: NONE, Method: STANDARD PLATE): inactive; negative
mutagenic call (Test System: CHO/HGPRT, Strain/Indicator: CHO-K1-BH4, Metabolic Activation: RAT, LIVER, S-9, AROCLOR 1254, Method: STANDARD PLATE): inactive; negative

CC(=O)OCCN(CCOC(C)=O)c1ccc([N+](=O)[O-])c2c(NCCCN(C)C)c3ccccc3nc12
mutagenic call [2]: active; positive
mutagenic call [4]: active; positive

COc1cccc2c1C(=O)c1c(O)c3c(c(O)c1C2=O)C[C@@](O)(C(=O)CO)C[C@@H]3O[C@H]1C[C@H](N)[C@@H](O)[C@H](C)O1
mutagenic call [1]: inactive; negative
mutagenic call [2]: active; positive
mutagenic call [4]: inactive; negative
mutagenic call (Test System: AMES SALMONELLA TYPHIMURIUM, Strain/Indicator: TA102, Metabolic Activation: NONE, Method: STANDARD PLATE): active; positive
mutagenic call (Test System: AMES SALMONELLA TYPHIMURIUM, Strain/Indicator: TA104, Metabolic Activation: NONE, Method: STANDARD PLATE): inactive; negative
mutagenic call (Test System: AMES SALMONELLA TYPHIMURIUM, Strain/Indicator: TA2637, Metabolic Activation: NONE, Method: STANDARD PLATE): active; positive

Cc1ccc2ccc3ccc(C)cc3c2c1
mutagenic call [1]: inactive; negative
mutagenic call (Test System: AMES SALMONELLA TYPHIMURIUM, Strain/Indicator: TA97, Metabolic Activation: RAT, LIVER, S-9, PCB, Method: STANDARD PLATE): inactive; negative
mutagenic call [2]: inactive; negative
mutagenic call (Test System: AMES SALMONELLA TYPHIMURIUM, Strain/Indicator: TA98, Metabolic Activation: RAT, LIVER, S-9, PCB, Method: STANDARD PLATE): active; positive
mutagenic call [4]: inactive; negative
mutagenic call (Test System: AMES SALMONELLA TYPHIMURIUM, Strain/Indicator: TA100, Metabolic Activation: RAT, LIVER, S-9, PCB, Method: STANDARD PLATE): inactive; negative
